US10689622B2, “Culture medium for proliferating stem cell, which contains sulfated compound” (AJINOMOTO CO., INC., priority 2012, dated 2020)

What was measured:
[1] = Measurement of content level of sulfur in test compound (ICP); assay type: physicochemical
Procedure, shortened: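 Sulfur content was measured by ICP emission spectrometry on samples containing 0.01 wt % test compound. Values came from a calibration curve of sulfur standards at 0, 1, 10, 30 and 50 ppm.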

iPS cell 201B7 strain = assay: iPS cell proliferation system (cell number); assay type: cell-based, human; conditions: matrigel, Essential-8 medium
Method: The cell proliferation effect of various test compounds was evaluated using artificial pluripotent stem cell (iPS cell). 201B7 strain purchased from iPS Academia Japan, Inc. was grown in a culture container coated with a basal lamina matrix (matrigel manufactured by Nippon Becton Dickinson Company, Ltd., or a fragment containing an active domain of laminin 511 purchased from OSAKA UNIVERSITY) (Becton, Dickinson and Company, Falcon culture petri dish or Falcon culture plate), contained in a feeder-free medium for human ES/iPS cell (ReproCELL Inc, ReproFF2).
In this medium were suspended iPS cells in colony state, and a 2.5- to 3.5-fold diluted amount of the original culture was plated on a 6-well culture plate coated with a basal lamina matrix (Nippon Becton Dickinson Company, Ltd., Falcon culture plate). […] After culturing for 6 to 12 days, the medium was removed, the cells were detached from the culture plate by a trypsin-EDTA (Sigma-Aldrich Ltd.) or TrypLE Select (Invitrogen) treatment and the cell number was measured. The cell number was measured by the method described in “Kaitei Saibou baiyou Nyuumon Note, page 77-83, 2010, YODOSHA CO., LTD.” which is incorporated herein by reference in its entirety.
When the cells were seeded in a dissociation state of the cells (single cell state), a test compound solution after filter sterilization was added to a medium containing Y-27632 (Nacalai Tesque) to a given concentration, and dispensed to a 6 well culture plate. Thereto were plated iPS cells suspended in a medium containing Y-27632 at 100,000 cells/well, and cultured for 6 to 8 days. On the next day of seeding, the medium was exchanged to a medium (without Y-27632) added with the test compound alone. When medium exchange was necessary, the medium was exchanged every 2 or 3 days. […] After culturing for 6 to 8 days, the cell number was measured by a method similar to that mentioned above.
When the evaluation was performed in Essential 8 medium (Invitrogen), which is a different feeder-free medium for iPS cell, iPS cells cultured in a medium obtained by adding human serum albumin (Sigma-Aldrich Co. LLC) to Essential 8 medium were used.

bFGF = biological target: T1, bFGF (Homo sapiens, UniProt P09038); assay: Evaluation of bFGF stabilization in Lonza serum-free medium (ELISA); assay type: biochemical
T1 construct: purchased Lonza (via TAKARA BIO INC.) Ser. No. 00/190,632
T1 sequence (P09038 143-288): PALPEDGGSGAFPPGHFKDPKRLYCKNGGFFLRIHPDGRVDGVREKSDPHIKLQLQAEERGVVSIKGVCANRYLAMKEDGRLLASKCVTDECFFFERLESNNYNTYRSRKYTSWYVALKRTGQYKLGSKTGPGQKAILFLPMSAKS
Procedure, shortened: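 Compound in PBS diluted 10-fold into serum-free medium and held sealed at 37 °C for 7 days (some sets 3 days). Remaining bFGF quantified by human bFGF sandwich ELISA against a standard curve. Controls were compound-free PBS-medium kept at 37 °C or 4 °C for the same period.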

[2] = test system: Human bone marrow-derived mesenchymal stem cells; assay: Mesenchymal stem cell proliferation system (cell number by DNA quantification); conditions: growth of mesenchymal stem cell, control ratio
[3] = compound used in the Examples, stated in the description

sulfur content Found (inorganic analysis) ([1]; ICPS-8100, evaluation samples containing 0.01 wt % test compound): 17 wt % | sulfate group / sulfo group content level [1, 3]: 48.8 wt % | sulfur content (content level of sulfur) [1, 3]: 19.5 wt % | concentration showing a suppressive effect on a decrease in the bFGF concentration in the medium (bFGF; Lonza serum-free medium, 37° C. for 3 days): not less than 250 ng/ml | effectiveness ELISA (bFGF; effectiveness in ELISA evaluation of mesenchymal stem cells (medium), 4° C. control ratio): + (+ 30%<)
Compound: O=S(=O)([O-])OC[C@H]1O[C@@](COS(=O)(=O)[O-])(O[C@H]2O[C@H](COS(=O)(=O)[O-])[C@@H](OS(=O)(=O)[O-])[C@H](OS(=O)(=O)[O-])[C@H]2OS(=O)(=O)[O-])[C@@H](OS(=O)(=O)[O-])[C@@H]1OS(=O)(=O)[O-].[K+].[K+].[K+].[K+].[K+].[K+].[K+].[K+] [sucrose 8SO3K]
number of cells relative to control (iPS cell 201B7 strain; test compound 25 ng/ml): ◯ (not less than 100%: ◯) | number of cells relative to control (iPS cell 201B7 strain; test compound 250 ng/ml): ◯ (not less than 100%: ◯) | bFGF concentration relative to that of 4° C. control (ELISA) (bFGF; Lonza serum-free medium, 37° C. for 3 days, test compound 25 ng/ml): x (bFGF concentration was less than 10% relative to that of 4 °C control) | bFGF concentration relative to that of 4° C. control (ELISA) (bFGF; Lonza serum-free medium, 37° C. for 3 days, test compound 250 ng/ml): − (bFGF concentration was not less than 10% and less than 30% relative to that of 4 °C control) | bFGF concentration relative to that of 4° C. control (ELISA) (bFGF; Lonza serum-free medium, 37° C. for 3 days, test compound 25 μg/ml): +++ (bFGF concentration was not less than 70% relative to that of 4 °C control) | bFGF concentration relative to that of 4° C. control (ELISA) (bFGF; Lonza serum-free medium, 37° C. for 3 days, test compound 250 μg/ml): +++ (bFGF concentration was not less than 70% relative to that of 4 °C control) | bFGF concentration relative to that of 4° C. control (ELISA) (bFGF; Lonza serum-free medium, 37° C. for 7 days, test compound 25 ng/ml): x (bFGF concentration was less than 10% relative to that of 4 °C control) | bFGF concentration relative to that of 4° C. control (ELISA) (bFGF; Lonza serum-free medium, 37° C. for 7 days, test compound 250 ng/ml): x (bFGF concentration was less than 10% relative to that of 4 °C control) | bFGF concentration relative to that of 4° C. control (ELISA) (bFGF; Lonza serum-free medium, 37° C. for 7 days, test compound 25 μg/ml): − (bFGF concentration was not less than 10% and less than 30% relative to that of 4 °C control) | bFGF concentration relative to that of 4° C. control (ELISA) (bFGF; Lonza serum-free medium, 37° C. for 7 days, test compound 250 μg/ml): + (bFGF concentration was not less than 30% and less than 50% relative to that of 4 °C control) | effectiveness cells [2]: ⊚ (⊚ not less than 120%)
